“Also recorded” adds a separate entry of the source.
Assays:
STEP61 = experiment: Knockdown of STEP protein by RNAi in cultured cortical neurons (Western blot); type: cell-based, rat
Description: Single stranded interfering RNA molecules (RNAi) were designed to be complementary to the sequence of STEP by standard means. The sequence used was 5′ AAACAUGCGAACAGUAUCAGU 3′. A standard scrambled RNA molecule of sequence 5′-CAG TCG CGT TTG CGA CTG G-3′ was used as a control. Dissociated cortical neurons were prepared from E18 rat embryos by standard protocols. The dissociated neurons were mixed with 90 ul of rat Nucleofector solution to give a final concentration of 4.8×10^6 cells/90 ul. The cells were mixed with 20 ug of RNAi and transferred to an electroporation cuvette. Using an AMAXA Nucleofector cells were electroporated using standard settings. Cells were transferred from the electroporation cuvette to poly-D-lysine coated 96 well plates for calcium flux assays or 6 well plates for Western blotting procedures and grown in standard neuronal media at 37° C. with 5% CO2 for 4 days.
Knockdown of endogenous STEP protein levels was visualized by Western blotting. Four days after electroporation cells were harvested and lysed with lysis buffer (150 mM NaCl, 50 mM Tris pH 7.6, 1% triton, in the presence of a protease inhibitor cocktail and 1 mM sodium orthovanadate) on ice. […] Levels of STEP protein were determined by Western blotting using anti-STEP antibodies (FIG. 6).

NMDA receptors = experiment: NMDA mediated calcium influx in cultured cortical neurons after RNAi (FLEXstation); type: cell-based, rat; details: 1 μM NMDA, four days after transfection, versus scrambled RNA molecule
EGF receptors = experiment: Surface expression of EGF receptors in neurons (biotinylation, Western blot); type: cell-based; details: versus RNAi-Scrambled
From the text: (§1) Interfering RNA molecules were introduced into neurons by AMAXA nucleofection. To specifically knockdown STEP the oligo used had the sequence 5′-[…]-3′, a control siRNA that is predicted not to knock down levels of any gene products (sequence 5′-[…]-3′ was also used (Dharmacon, Lafayette, Colo.). Interfering RNA molecules were introduced into neurons using the AMAXA nucleofection technique (AMAXA, Gaithersburg, Md.) using the manufacturers protocol. Neurons were allowed to grow in culture for 3-4 days prior to experimental procedures.
(§2) Neurons were washed with ice cold PBS. Sulfo-NHS-LC-Biotin (Pierce Biotechnology, Rockford, Ill.) was dissolved at 1.5 mg/ml in ice cold PBS and incubated with the cells for 1 hour at […]. Excess biotin was washed off the cells with ice cold PBS and cells lysed and harvested as above. […] of protein lysate was incubated with 100 μl of neutravadin agarose slurry (Pierce Biotechnology) overnight at […]. The complexes were washed thoroughly and proteins eluted from the beads by resuspension in SDS loading buffer and boiling for 10 mins. Proteins were loaded on 8% Tris-gicine gels and separated by SDS-PAGE. Western blotting was performed by standard means using the indicated antibodies.

[1] = test system: NMDA receptors (NR1, NR2A, NR2B); experiment: Surface expression of NMDA receptor subunits in neurons (biotinylation, Western blot); type: cell-based
From the text: as §1, §2

[2] = test system: GluR1 subunit of AMPA receptors; experiment: Surface expression of AMPA receptor GluR1 subunit in neurons (biotinylation, Western blot); type: cell-based; details: versus RNAi-Scrambled
From the text: as §1, §2

GABAA receptor b subunit = experiment: Surface expression of GABAA receptor b subunit in neurons (biotinylation, Western blot); type: cell-based; details: versus RNAi-Scrambled
From the text: as §1, §2

[3] = test system: NMDA receptor / ERK phosphorylation; experiment: NMDAR mediated ERK phosphorylation in cultured cortical neurons (Western blot); type: cell-based
Description: […] SDS-PAGE was performed and western blotting used to detect ERK phosphorylation levels.
ERK phosphorylation in cultured cortical neurons (10-13 division) can be elicited by activation of NMDARs.

5′ AAACAUGCGAACAGUAUCAGU 3′ (guide AAACAUGCGAACAGUAUCAGU; siRNA; RNA, backbone and methylation of C not given here; single-stranded interfering RNA) [RNAi-STEP]
levels of STEP61 protein (STEP61; cultured cortical neurons, four days after transfection, versus scrambled RNA molecule): lower levels of STEP61 protein | STEP levels in the total protein lysate (STEP61; neurons, AMAXA nucleofection, relative to RNAi-Scrambled): knocked down | Ca influx elicited by application of NMDA (NMDA receptors): increase in NMDA receptor mediated Ca influx | Ca influx elicited by application of NMDA (NMDA receptors; listed as inhibitory RNA to STEP): larger NMDA response | surface levels of EGF receptors (EGF receptors): unaffected | total levels of each subunit ([1]; RNAi-STEP or RNAi-Scrambled): the same | levels of surface NR1 ([1]; versus RNAi-Scrambled): increased | levels of surface NR2A ([1]; versus RNAi-Scrambled): increased | levels of surface NR2B ([1]; versus RNAi-Scrambled): increased | surface levels of the GluR1 subunit of AMPA receptors [2]: unaffected | surface levels of the GABAA receptor b subunit (GABAA receptor b subunit): unaffected

N[C@H](CCCP(=O)(O)O)C(=O)O [D-APV, D-2-amino-5-phosphonopentanoic acid]
NMDA stimulated ERK phosphorylation ([3]; D-APV 200 μM, stimulation with 100 μM NMDA for 5 minutes): blocked; also recorded: inhibits

CN[C@H](CC(=O)O)C(=O)O [NMDA, N-methyl-D-aspartate]
ERK phosphorylation levels ([3]; 100 μM NMDA for 5 minutes, cultured cortical neurons (10-13 division)): significant ERK phosphorylation; also recorded: significantly increased

— patent US20050221411A1, “Interaction of NMDA receptor with the protein tyrosine phosphatase step in psychotic disorders” (AGY Therapeutics, Inc., priority 2003, published 2005)
